Results from patent US20250017874A1, “PHARMACEUTICAL COMPOSITIONS FOR USE IN REDUCING HYPERPIGMENTATION” (Caliway Biopharmaceuticals Co., Ltd., priority 2023, published 2025).
pEC50: −log10 of the molar value. Like-named read-outs stand apart in the source and are kept apart here.

Tests used:
B16-F10 cells [1] = test: In vitro melanin content versus arbutin and hydroquinone (Example 6); type: cell-based, mouse
Method: Except the vehicle group, cells of the other groups were cultured with α-MSH for 24 hours first. The compositions for investigation (see Tables 19 and 20) were then added to the culture medium and the cells were further cultured for 24 hours. The rest of the experimental operation process was similar to that described in Example 3. […] [table] [table]

B16-F10 cell line [2] = test: In vitro whitening efficacy: melanin content (Example 7); type: cell-based, mouse
Description: (§1) Table 23 below lists the study design for evaluating EC50 values of IM01, which contains 4-[(E)-2-(3,5-dihydroxyphenyl)ethenyl]benzene-1,3-diol.
(§2) Table 25 below lists the study design for evaluating EC50 values of IM01, which contains 4-[(E)-2-(3,5-dihydroxyphenyl)ethenyl]benzene-1,3-diol.

B16-F10 cell line [3] = type: cell-based, mouse; conditions: for Relative cell viability (%): mouse
Description: as §1, §2

B16-F10 cells [4] = test: In vitro efficacy comparison: melanin content, α-MSH 0.5 h then test article 30 h (Example 5); type: cell-based, mouse; conditions: for Melanin content (%) Mean: α-MSH 0.5 h then TA 30 h
Method: B16-F10 cells were seeded in a 96-well plate. Except the vehicle group, cells of the other groups were cultured in the presence of α-MSH for 0.5 hours first. The compositions for examination were then added to the culture medium and the cells were further cultured for 30 hours. The rest of the experimental conditions and procedures were similar to those described in Example 3. Afterwards, the cells were collected to evaluate the effect of 4-[(E)-2-(3,5-dihydroxyphenyl)ethenyl]benzene-1,3-diol compositions (IM01 Group) and Arbutin and 5-[(E)-2-(4-hydroxyphenyl)ethenyl]benzene-1,3-diol (IM00 Group) compositions on reducing melanin levels. The experimental design is summarized in Table 18 and results shown in both Table 18 and FIG. 5.

UVB-irradiated mice skin = test: In vivo efficacy: skin melanin after UVB irradiation, intradermal injection or topical administration (Example 4B/4C); conditions: for Melanin Mean ± SD (UVB group = 100.0): treatment period 3 weeks
Description: The IM01 formulation was investigated for in vivo efficacy via intradermal injection, either twice a week (IM01-ID/L) or once a day (IM01-ID/H). [table] The IM01 formulation was investigated for in vivo efficacy via topical administration (IM01-T), following the study design provided in Table 16 below. [table]

HRM-2 mice = test: In vivo efficacy: skin melanin content after UVB irradiation, different administration routes (Example 4A)
Description: The experiment tested a total of 20 mice using conventional diets in the adaptation period, the induction period, and the test period. After 7 days of adaptation, the mice were randomly divided into a control group and a UVB-c group according to body weight and body weight changes, so that no statistical difference in average body weight and body weight changes were noticeable among the groups. The UVB-c group was subjected to 150 mJ/cm^2/day of UVB irradiation with a frequency of irradiating the back of the mice three times a week.
Injection frequency was once a week, three times in total, with an average injection area of 6 cm^2 skin each time. The IM01—Topical group and the color cream group were administered by smearing once a day for a total of 21 days. […] During the treatment period, the backs of the mice were irradiated with 150 mJ/cm^2/day of UVB three times a week until sacrificed. It should be noted that the timing of UVB exposure and drug administration were staggered.
After sacrificing the mice on day 22, the skin of treatment area was collected and subjected to heat extraction with 0.4 mL NaOH for 1 hour. […] The experimental data were expressed as mean±standard deviation (n=3-5), using Student's t-test analysis, #p<0.05, ##p<0.01 compared with control group; *p<0.05, **p<0.01 compared with UVB-c group.

B16-F10 cells [5] = test: In vitro efficacy test: melanin content after α-MSH induction (Example 3); type: cell-based, mouse
Method: Alpha-melanocyte-stimulating hormone (α-MSH) is a peptide hormone capable of inducing melanin production. In this study, the effects of 4-[(E)-2-(3,5-dihydroxyphenyl)ethenyl]benzene-1,3-diol samples (having different concentrations of 4-[(E)-2-(3,5-dihydroxyphenyl)ethenyl]benzene-1,3-diol) on inhibition of melanin production were investigated.
B16-F10 cells were seeded in a 96-well plate at a density of 1×10^5 cells/well and cultured for 24 hours. The cells were then incubated with 0.1 μM α-MSH for 24 hours to include melanin production. The 4-[(E)-2-(3,5-dihydroxyphenyl)ethenyl]benzene-1,3-diol samples with different concentrations were then added to the cultured cells, which were cultured for an additional 24 hours. No α-MSH was used for the vehicle control group.
After the cells were washed once with 1 mL of 1×PBS, add 300 μL of 1×Trypsin-EDTA, they were placed in a 37° C. incubator for 5 minutes. Finally, 1 mL of DMEM was added to the cells, and the number of cells were counted by Trypan blue staining.
Cell suspension was centrifuged at 1500 g for 5 minutes at room temperature, followed by supernatant removal and air-dry of the pellet for 15 minutes. 1 N NaOH (containing 10% DMSO) was added to break up the pellet, followed by shaking by ultrasonic waves for 30 minutes and heating in a water bath at 80° C. for 1.5 hours. After cooling down, the suspension was taken and measured for absorbance at 405 nm. Results were calculated by deducting the reagent blank from the absorbance value at 405 nm and divided by the average absorbance value of the α-MSH Group.

[6] = TA 60 μM (/L of IM01 and HQ), HQ vehicle DDW, Table 26
[7] = TA 120 μM (/H of IM01 and HQ), HQ vehicle DDW, Table 26
[8] = IM01-ID/H: ID, 23 mg/mL, once a day
[9] = IM01-ID/L: ID, 23 mg/mL, twice a week
[10] = IM01-T: topical, 45 mg/mL, once a day

Oc1ccc(O)cc1 [Hydroquinone, hydroquinone, reference compound]
Melanin content (%) Mean ± SD (B16-F10 cells [1]; TA 120 μM, Table 21 experiment): 61.5 ± 4.6% | Melanin content (%) (B16-F10 cell line [2]; [6]): 34.6 ± 2.8% | Melanin content (%) (B16-F10 cell line [2]; [7]): 40.5 ± 3.7% | Cytotoxicity (B16-F10 cell line [3]): high cytotoxicity | Relative cell viability (%) (B16-F10 cell line [3]; 60 μM): 88.2 ± 6.0%

Oc1cc(O)cc(/C=C/c2ccc(O)cc2O)c1 [IM01, 4-[(E)-2-(3,5-dihydroxyphenyl)ethenyl]benzene-1,3-diol]
Effect in reducing melanin compared with Arbutin (450 μM or 900 μM) and hydroquinone (120 μM) (B16-F10 cells [1]; 120 μM): better than that of the whitening agent Arbutin | Melanin content compared with vehicle group (no α-MSH induction) (B16-F10 cells [1]; 120 μM): even lower than that of the vehicle group | Melanin content (%) Mean ± SD (B16-F10 cells [1]; TA 30 μM, α-MSH 24 hr + TA 24 hr, Table 22 experiment): 84.6 ± 3.6% | Melanin content (%) Mean ± SD (B16-F10 cells [1]; TA 60 μM, Table 22 experiment): 52.8 ± 3.8% | Melanin content (%) Mean ± SD (B16-F10 cells [1]; TA 60 μM, α-MSH 24 hr + TA 24 hr, Table 21 experiment): 47.6 ± 3.4% | Melanin content (%) Mean ± SD (B16-F10 cells [1]; TA 120 μM, Table 21 experiment): 26.2 ± 2.4% | Melanin content (%) Mean ± SD (B16-F10 cells [1]; TA 120 μM, Table 22 experiment): 33.9 ± 1.4% | Melanin content (%) Mean ± SD (B16-F10 cells [1]; TA 180 μM, Table 22 experiment): 11.7 ± 2.3% | pEC50 (B16-F10 cell line [2]; Mus musculus, B16-F10, α-MSH 24 hr + TA 24 hr, 4-256 μM, read-out: EC50 value (reduction of melanin levels induced by α-MSH)): ~4.39 | Melanin content (%) (B16-F10 cell line [2]; TA 4 μM, α-MSH 24 hr + TA 24 hr, Table 24): 90.2 ± 6.1% | Melanin content (%) (B16-F10 cell line [2]; TA 8 μM, Table 24): 83.2 ± 6.9% | Melanin content (%) (B16-F10 cell line [2]; TA 16 μM, Table 24): 81.8 ± 4.5% | Melanin content (%) (B16-F10 cell line [2]; TA 32 μM, Table 24): 67.7 ± 7.1% | Melanin content (%) (B16-F10 cell line [2]; [6]): 51.7 ± 2.6% | Melanin content (%) (B16-F10 cell line [2]; TA 64 μM, Table 24): 43.0 ± 4.3% | Melanin content (%) (B16-F10 cell line [2]; [7]): 37.7 ± 0.4% | Melanin content (%) (B16-F10 cell line [2]; TA 128 μM, Table 24): 36.1 ± 2.9% | Melanin content (%) (B16-F10 cell line [2]; TA 181 μM, Table 24): 34.8 ±3.5% | Melanin content (%) (B16-F10 cell line [2]; TA 256 μM, Table 24): 25.9 ± 1.5% | Melanin inhibition activity compared with arbutin (B16-F10 cell line [2]; Table 25 concentrations, FIG. 7C): much greater than arbutin | Melanin content (%) Mean (B16-F10 cells [4]; TA 89.19 μM (IM01-20)): 67.4% | Melanin content (%) Mean (B16-F10 cells [4]; TA 178.38 μM (IM01-40)): 43.5% | In vitro effect in reducing melanin relative to 5-[(E)-2-(4-hydroxyphenyl)ethenyl]benzene-1,3-diol and arbutin (B16-F10 cells [4]; Table 18 concentrations): better in vitro effects in reducing melanin | Cytotoxicity (B16-F10 cell line [3]): low cytotoxicity | Relative cell viability (%) (B16-F10 cell line [3]; 8 μM): 98.4 ± 2.0% | Relative cell viability (%) (B16-F10 cell line [3]; 16 μM): 96.7 ± 2.4% | Relative cell viability (%) (B16-F10 cell line [3]; 32 μM): 98.7 ± 2.2% | Relative cell viability (%) (B16-F10 cell line [3]; 60 μM): 88.5 ± 1.4% | Relative cell viability (%) (B16-F10 cell line [3]; 64 μM): 93.0 ± 1.0% | Relative cell viability (%) (B16-F10 cell line [3]; 120 μM): 84.9 ± 0.4% | Relative cell viability (%) (B16-F10 cell line [3]; 128 μM): 89.8 ± 3.7% | Relative cell viability (%) (B16-F10 cell line [3]; 181 μM): 79.9 ± 5.6% | Relative cell viability (%) (B16-F10 cell line [3]; 256 μM): 74.6 ± 7.0% | Reduction of melanin production (UVB-irradiated mice skin; [8]): 23.1% | Melanin Mean ± SD (UVB group = 100.0) (UVB-irradiated mice skin; [8]): 76.9 ± 12.7 | Reduction of melanin production (UVB-irradiated mice skin; [9]): 13.9% | Melanin Mean ± SD (UVB group = 100.0) (UVB-irradiated mice skin; [9]): 86.1 ± 14.5 | Reduction of melanin production (UVB-irradiated mice skin; [10]): 21.4% | Melanin Mean ± SD (UVB group = 100.0) (UVB-irradiated mice skin; [10]): 79.6 ± 12.5 | Skin color compared with UVB-c group (HRM-2 mice; IM01-ID group and IM01-Topical group, intradermal injection or smearing): whiter and brighter than that of the UVB-c group | Melanin level lower than the UVB-c group by (HRM-2 mice; IM01-ID group, intradermal, p<0.01): 33.6% | Percentage change of melanin Mean ± SD (% of UVB-c) (HRM-2 mice; IM01-ID: intradermal, 20 mg/mL, 0.5 mg/cm^2, once a week): −33.6 ± 6.0 % of UVB-c | Melanin Content Mean ± SD (% of UVB-c) (HRM-2 mice; IM01-ID: intradermal, 20 mg/mL, 0.5 mg/cm^2, once a week, three times, skin collected day 22): 66.4 ± 6.0 % of UVB-c | Melanin level lower than the UVB-c group by (HRM-2 mice; IM01-Topical group, p<0.05): 30.6% | Percentage change of melanin Mean ± SD (% of UVB-c) (HRM-2 mice; IM01-Topical: 20 mg/mL, 0.4-0.5 mg/cm^2, once a day): −30.6 ± 7.6 % of UVB-c | Melanin Content Mean ± SD (% of UVB-c) (HRM-2 mice; IM01-Topical: 20 mg/mL, 0.4-0.5 mg/cm^2, once a day for 21 days, day 22): 69.4 ± 7.6 % of UVB-c | Melanin production compared with vehicle group (without α-MSH) (B16-F10 cells [5]; IM01-C4, IM01-C5 and IM01-C6 groups (22.6, 32, 64 ppm)): lower than that of the vehicle group | pEC50 (B16-F10 cells [5]; Mus musculus, B16-F10, printed as equal to 15.2 ppm): 4.21 | Melanin Content Inhibition Ability (%) Mean (B16-F10 cells [5]; TA 8 ppm (IM01-C1)): 20.1% | Melanin content (%) Mean (B16-F10 cells [5]; TA 8 ppm (IM01-C1), α-MSH 0.1 μM 24 h then TA 24 h, relative to α-MSH control): 79.9% | Melanin Content Inhibition Ability (%) Mean (B16-F10 cells [5]; TA 11.3 ppm (IM01-C2)): 41.1% | Melanin content (%) Mean (B16-F10 cells [5]; TA 11.3 ppm (IM01-C2), α-MSH 24 h then TA 24 h): 58.9% | Melanin Content Inhibition Ability (%) Mean (B16-F10 cells [5]; TA 16 ppm (IM01-C3)): 56.8% | Melanin content (%) Mean (B16-F10 cells [5]; TA 16 ppm (IM01-C3), α-MSH 24 h then TA 24 h): 43.2% | Melanin Content Inhibition Ability (%) Mean (B16-F10 cells [5]; TA 22.6 ppm (IM01-C4)): 66.7% | Melanin content (%) Mean (B16-F10 cells [5]; TA 22.6 ppm (IM01-C4), α-MSH 24 h then TA 24 h): 33.3% | Melanin Content Inhibition Ability (%) Mean (B16-F10 cells [5]; TA 32 ppm (IM01-C5)): 74% | Melanin content (%) Mean (B16-F10 cells [5]; TA 32 ppm (IM01-C5), α-MSH 24 h then TA 24 h): 26.0% | Melanin Content Inhibition Ability (%) Mean (B16-F10 cells [5]; TA 64 ppm (IM01-C6)): 84.6% | Melanin content (%) Mean (B16-F10 cells [5]; TA 64 ppm (IM01-C6), α-MSH 24 h then TA 24 h): 15.4% | EC50 (melanin content) (B16-F10 cells [5]; α-MSH 24 h then TA 24 h): around 15.2 ppm
